Cl.c1ccc([C@H]2CN3CCSC3=N2)cc1
Conditions | solubility (mole fraction)
in DMSO, 293.15 K | 0.0117
in DMSO, 298.15 K | 0.0129
in DMSO, 303.15 K | 0.014
in DMSO, 308.15 K | 0.0157
in DMSO, 313.15 K | 0.0173
in DMSO, 318.15 K | 0.0193
in DMSO, 323.15 K | 0.0218
in DMSO, 328.15 K | 0.0237
in DMSO, 333.15 K | 0.0265
in ethanol, 283.15 K | 0.00753
in ethanol, 288.15 K | 0.00881
in ethanol, 293.15 K | 0.0101
in ethanol, 298.15 K | 0.0119
in ethanol, 303.15 K | 0.0153
in ethanol, 308.15 K | 0.0178
in ethanol, 313.15 K | 0.0201
in ethanol, 318.15 K | 0.0244
in ethanol, 323.15 K | 0.0289
in isobutanol, 283.15 K | 0.000869
in isobutanol, 288.15 K | 0.00131
in isobutanol, 293.15 K | 0.00182
in isobutanol, 298.15 K | 0.00247
in isobutanol, 303.15 K | 0.00334
in isobutanol, 308.15 K | 0.00447
in isobutanol, 313.15 K | 0.00577
in isobutanol, 318.15 K | 0.00747
in isobutanol, 323.15 K | 0.00937
in isopentanol, 283.15 K | 0.00108
in isopentanol, 288.15 K | 0.00134
in isopentanol, 293.15 K | 0.00182
in isopentanol, 298.15 K | 0.00234
in isopentanol, 303.15 K | 0.00287
in isopentanol, 308.15 K | 0.00402
in isopentanol, 313.15 K | 0.00542
in isopentanol, 318.15 K | 0.00676
in isopentanol, 323.15 K | 0.00873
in isopropanol, 283.15 K | 0.000856
in isopropanol, 288.15 K | 0.00104
in isopropanol, 293.15 K | 0.00138
in isopropanol, 298.15 K | 0.00179
in isopropanol, 303.15 K | 0.00225
in isopropanol, 308.15 K | 0.00275
in isopropanol, 313.15 K | 0.00319
in isopropanol, 318.15 K | 0.00401
in isopropanol, 323.15 K | 0.00475
in methanol, 283.15 K | 0.0298
in methanol, 288.15 K | 0.0357
in methanol, 293.15 K | 0.0429
in methanol, 298.15 K | 0.0513
in methanol, 303.15 K | 0.0595
in methanol, 308.15 K | 0.0696
in methanol, 313.15 K | 0.0816
in methanol, 318.15 K | 0.0955
in methanol, 323.15 K | 0.109
in n-butanol, 283.15 K | 0.00182
in n-butanol, 288.15 K | 0.00236
in n-butanol, 293.15 K | 0.00311
in n-butanol, 298.15 K | 0.00407
in n-butanol, 303.15 K | 0.00542
in n-butanol, 308.15 K | 0.00699
in n-butanol, 313.15 K | 0.00888
in n-butanol, 318.15 K | 0.0111
in n-butanol, 323.15 K | 0.0139
in n-hexanol, 283.15 K | 0.000727
in n-hexanol, 288.15 K | 0.000986
in n-hexanol, 293.15 K | 0.00136
in n-hexanol, 298.15 K | 0.00198
in n-hexanol, 303.15 K | 0.00226
in n-hexanol, 308.15 K | 0.00283
in n-hexanol, 313.15 K | 0.0035
in n-hexanol, 318.15 K | 0.00437
in n-hexanol, 323.15 K | 0.00524
in n-pentanol, 283.15 K | 0.000747
in n-pentanol, 288.15 K | 0.00112
in n-pentanol, 293.15 K | 0.00161
in n-pentanol, 298.15 K | 0.00209
in n-pentanol, 303.15 K | 0.00293
in n-pentanol, 308.15 K | 0.00377
in n-pentanol, 313.15 K | 0.00471
in n-pentanol, 318.15 K | 0.00605
in n-pentanol, 323.15 K | 0.00745
in n-propanol, 283.15 K | 0.00412
in n-propanol, 288.15 K | 0.00492
in n-propanol, 293.15 K | 0.00631
in n-propanol, 298.15 K | 0.00751
in n-propanol, 303.15 K | 0.00903
in n-propanol, 308.15 K | 0.0109
in n-propanol, 313.15 K | 0.013
in n-propanol, 318.15 K | 0.0149
in n-propanol, 323.15 K | 0.0169
in sec-butanol, 283.15 K | 0.000587
in sec-butanol, 288.15 K | 0.000722
in sec-butanol, 293.15 K | 0.000867
in sec-butanol, 298.15 K | 0.00105
in sec-butanol, 303.15 K | 0.00123
in sec-butanol, 308.15 K | 0.00148
in sec-butanol, 313.15 K | 0.00177
in sec-butanol, 318.15 K | 0.00213
in sec-butanol, 323.15 K | 0.00252
in water, 283.15 K | 0.0664
in water, 285.65 K | 0.0718
in water, 288.15 K | 0.0769
in water, 290.65 K | 0.0825
in water, 293.15 K | 0.0879
in water, 295.65 K | 0.0943
in water, 298.15 K | 0.101
in water, 300.65 K | 0.106
in water, 303.15 K | 0.113
in water, 305.65 K | 0.12
in water, 308.15 K | 0.127
